Test results as given in PubChem BioAssay (NCI).
Several values for one entry are separate records, joined by “and”; a condition that tells them apart may be missing. Equal values may be shown once.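 Where inhibition never reached the appropriate level, the endpoint shown equals the highest concentration tested. Otherwise, values were interpolated linearly from a five-concentration, 48-hour dose response in 96-well plates. GI50 = concentration required for 50% inhibition of growth. Definition used: TGI = concentration required for complete inhibition of growth.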

test system: CAKI-1 renal; assay: growth of human tumour cells (NCI), 48 h

SMILES | TGI | GI50 [µM]
OCC(O)CNc1ccnc2cc(Cl)ccc12 (stereo not given) | > 100 µM | –
Cc1cccc(C(C)C)c1NC(=O)C(=O)C(C(=O)c1ccccc1F)C1OC(=O)c2ccccc21 (stereo not given) | 70.5 µM | –
Cc1cccc(C)c1NC(=O)C(=O)CC(=O)c1cccc([N+](=O)[O-])c1 | > 100 µM | –
S=C1SC2=Nc3ccccc3CN2C2=NCCN12 | > 100 µM | > 100
CC1=C(c2cc(C(=O)Nc3ccc(Cl)cc3)nc(=S)[nH]2)Sc2ccccc2N1 | > 100 µM | –
O=C(O)CN(c1ccccc1)S(=O)(=O)c1ccc([N+](=O)[O-])cc1 | > 100 µM | –
CC1=C(C(=O)NNS(=O)(=O)c2ccc(C)cc2)CC(C(=O)NNS(=O)(=O)c2ccc(C)cc2)=C(C)N1 | > 100 µM | –
[F][Sn]([F])([c]1ccccc1)[c]1ccccc1 | 3.22 µM | 1.32
N#CC(C(=O)CCC(=O)Nc1cccc(C(F)(F)F)c1)c1ccc(Cl)cc1 (stereo not given) | > 100 µM | –
Cc1cc(C(C)(C)C)cc(Cc2cc(C(C)(C)C)cc(Cc3cc(C(C)(C)C)cc(C)c3O)c2O)c1O | 25.6 µM | –
COC(=O)/C(=C\c1ccc(N(CCC#N)CCC#N)cc1)NC(=O)c1cc([N+](=O)[O-])ccc1Cl | > 100 µM | –
COC1=C(Br)C(=O)c2nc(C)ccc2C1=O | 29.3 µM | –
COc1ccc2c3c(Nc4ccc(/C(C)=N/O)cc4)[nH]c4ccccc4c-3c(N=O)c2c1 | 6.01 µM | 2.65
C/C(CCn1[nH]c(=O)ccc1=O)=N\OCCCc1ccccc1 | > 100 µM | –
COC(=O)c1cccc2cccc(C(=O)Nc3ccc(Cl)cc3)c12 | > 100 µM | –
N.N.NCCCCCCCCCN.O=C([O-])CC(=O)[O-].O=C([O-])CC(=O)[O-].[Pt+4].[Pt+4] | 91.1 µM | 22.3
CC(=O)OC1C2CCC1C1C2C2(Cl)C(Cl)=C(Cl)C1(Cl)C2(Cl)Cl (stereo not given) | 27 µM | –
CC(C(=O)n1c2ccccc2c2ccccc21)N(c1ccccc1)c1ccccc1 (stereo not given) | 27.7 µM | –
CCOC(=O)Cn1c(=O)n(C)c(=O)c2c1ncn2Cc1ccccc1 | > 100 µM | –

SMILES | TGI | GI50 [µM]
CC(C)(C)OC(=O)N1N=NC2C1C1CC(OCc3ccccc3)(OCc3ccccc3)C2O1 (stereo not given) | > 100 µM | –
O=C1CSC(c2ccc(-c3nc4ccccc4s3)cc2)=N1 | > 100 µM | 17.4
O=C1C(=O)N(c2cc(Cl)ccc2Cl)C(=O)C(=O)C1c1nc2ccccc2o1 | > 100 µM | –
CC1=C(C(=O)Nc2ccccc2)C(c2ccc(C3C(C(=O)Nc4ccccc4)=C(C)NC(C)=C3C(=O)Nc3ccccc3)cc2)C(C(=O)Nc2ccccc2)=C(C)N1 | 14.4 µM | –
O=c1c2ccccc2nc(-c2ccccc2)n1NC(=S)Nc1ccccc1 | > 100 µM | –
C[C@]12CC[C@@H]3c4ccc(O)c([N+](=O)[O-])c4CC[C@H]3[C@@H]1CC[C@@H]2NS(=O)(=O)c1cccc(Br)c1 | 5.43 µM | 2.36
CCOC(=O)/C(=C/c1cccc(C#N)c1)N(CC)CC | > 100 µM | –
N#Cc1ccc(OC(=O)Nc2ccc(Cl)c(Cl)c2)cc1 | 18.2 µM | 3.4
O=S1(=O)OCCOS(=O)(=O)C1Cl | > 100 µM | –
COc1cc(C2C(C(=O)Nc3cc(F)c(F)cc3F)=C(C)NC(C)=C2C(=O)Nc2cc(F)c(F)cc2F)ccc1O | 42.8 µM | –
O=c1nc(-c2ccccc2)cc(-c2ccccc2O)[nH]1 | > 100 µM | –
Oc1ccc(Br)cc1C=Nc1ccc(N=Cc2cc(Br)ccc2O)cc1 | > 100 µM | –
CCOc1ccccc1NC(=O)C(=O)Cc1nc2ccccc2s1 | > 100 µM | –
C=CCn1c2c(sc1=S)C(S)N=CN2 (stereo not given) | > 100 µM | –
CN(C)CCSc1nccc(-c2cc3ccccc3s2)n1 | 56.7 µM | –
O=C(O)CSc1n[nH]c(Cc2ccccc2)n1 | > 100 µM | –
O=C1C(Cl)=C(Nc2ccccc2O)C(=O)N1Cc1ccccc1 | 68.7 µM | 26
CCOc1ccccc1NC(=O)C(C#N)C1=C(Cl)C(=O)c2ccccc2C1=O (stereo not given) | 5 µM and 3.29 µM | 1.81

test system: DU-145 prostate; assay: growth of human tumour cells (NCI), 48 h

SMILES | GI50 | TGI [µM]
S=C1SC2=Nc3ccccc3CN2C2=NCCN12 | > 100 µM | > 100
Clc1cc(Cl)cc(Nc2ccc3cc(OCCCN4CCOCC4)ccc3n2)c1 | 3.05 µM | > 100
COc1ccc2c3c(Nc4ccc(/C(C)=N/O)cc4)[nH]c4ccccc4c-3c(N=O)c2c1 | 2.04 µM | 4.79
O=C1CSC(c2ccc(-c3nc4ccccc4s3)cc2)=N1 | 67 µM | > 100
CCC(=O)Nc1ccc(N=NN(C)C)cc1 | – | > 100
C[C@]12CC[C@@H]3c4ccc(O)c([N+](=O)[O-])c4CC[C@H]3[C@@H]1CC[C@@H]2NS(=O)(=O)c1cccc(Br)c1 | 3.6 µM | 12.4
N#Cc1ccc(OC(=O)Nc2ccc(Cl)c(Cl)c2)cc1 | 4.13 µM | > 100
C=CCN1CC2CON(C(=O)C(OC)(c3ccccc3)C(F)(F)F)C2C1C(C)C (stereo not given) | 54 µg/mL | –
O=C1C(Cl)=C(Nc2ccccc2O)C(=O)N1Cc1ccccc1 | 18.2 µM | 32.1

test system: HOP-62 NSCLC; assay: growth of human tumour cells (NCI), 48 h

SMILES | TGI [µM] | GI50 [µM]
OCC(O)CNc1ccnc2cc(Cl)ccc12 (stereo not given) | > 100 | –
Cc1cccc(C(C)C)c1NC(=O)C(=O)C(C(=O)c1ccccc1F)C1OC(=O)c2ccccc21 (stereo not given) | 35.8 | –
Cc1cccc(C)c1NC(=O)C(=O)CC(=O)c1cccc([N+](=O)[O-])c1 | > 100 | –
S=C1SC2=Nc3ccccc3CN2C2=NCCN12 | > 100 | > 100
CC1=C(c2cc(C(=O)Nc3ccc(Cl)cc3)nc(=S)[nH]2)Sc2ccccc2N1 | > 100 | –
CC1=C(C(=O)NNS(=O)(=O)c2ccc(C)cc2)CC(C(=O)NNS(=O)(=O)c2ccc(C)cc2)=C(C)N1 | > 100 | –
[F][Sn]([F])([c]1ccccc1)[c]1ccccc1 | 4.85 | 2.32
N#CC(C(=O)CCC(=O)Nc1cccc(C(F)(F)F)c1)c1ccc(Cl)cc1 (stereo not given) | > 100 | –
Cc1cc(C(C)(C)C)cc(Cc2cc(C(C)(C)C)cc(Cc3cc(C(C)(C)C)cc(C)c3O)c2O)c1O | 28.9 | –
COC(=O)/C(=C\c1ccc(N(CCC#N)CCC#N)cc1)NC(=O)c1cc([N+](=O)[O-])ccc1Cl | > 100 | –
COC1=C(Br)C(=O)c2nc(C)ccc2C1=O | > 60.3 | –
COc1ccc2c3c(Nc4ccc(/C(C)=N/O)cc4)[nH]c4ccccc4c-3c(N=O)c2c1 | 30.9 | 11.6
C/C(CCn1[nH]c(=O)ccc1=O)=N\OCCCc1ccccc1 | > 100 | –
COC(=O)c1cccc2cccc(C(=O)Nc3ccc(Cl)cc3)c12 | > 100 | –
N.N.NCCCCCCCCCN.O=C([O-])CC(=O)[O-].O=C([O-])CC(=O)[O-].[Pt+4].[Pt+4] | > 100 | > 100
CC(=O)OC1C2CCC1C1C2C2(Cl)C(Cl)=C(Cl)C1(Cl)C2(Cl)Cl (stereo not given) | 29 | –
CC(C(=O)n1c2ccccc2c2ccccc21)N(c1ccccc1)c1ccccc1 (stereo not given) | 32 | –
CCOC(=O)Cn1c(=O)n(C)c(=O)c2c1ncn2Cc1ccccc1 | > 100 | –

SMILES | TGI [µM] | GI50 [µM]
CCCCc1c2c(nc3c1CCC/C3=C\c1ccccc1)/C(=C/c1ccccc1)CCC2 | > 100 | –
CC(C)(C)OC(=O)N1N=NC2C1C1CC(OCc3ccccc3)(OCc3ccccc3)C2O1 (stereo not given) | > 100 | –
O=C1CSC(c2ccc(-c3nc4ccccc4s3)cc2)=N1 | > 100 | 43.7
O=C1C(=O)N(c2cc(Cl)ccc2Cl)C(=O)C(=O)C1c1nc2ccccc2o1 | > 100 | –
CC1=C(C(=O)Nc2ccccc2)C(c2ccc(C3C(C(=O)Nc4ccccc4)=C(C)NC(C)=C3C(=O)Nc3ccccc3)cc2)C(C(=O)Nc2ccccc2)=C(C)N1 | 10.6 | –
CCC(=O)Nc1ccc(N=NN(C)C)cc1 | > 100 | –
O=c1c2ccccc2nc(-c2ccccc2)n1NC(=S)Nc1ccccc1 | > 100 | –
C[C@]12CC[C@@H]3c4ccc(O)c([N+](=O)[O-])c4CC[C@H]3[C@@H]1CC[C@@H]2NS(=O)(=O)c1cccc(Br)c1 | 3.54 | 1.9
CCOC(=O)/C(=C/c1cccc(C#N)c1)N(CC)CC | > 100 | –
N#Cc1ccc(OC(=O)Nc2ccc(Cl)c(Cl)c2)cc1 | 60.7 | 7.5
O=S1(=O)OCCOS(=O)(=O)C1Cl | > 100 | –
COc1cc(C2C(C(=O)Nc3cc(F)c(F)cc3F)=C(C)NC(C)=C2C(=O)Nc2cc(F)c(F)cc2F)ccc1O | 97.9 | –
O=c1nc(-c2ccccc2)cc(-c2ccccc2O)[nH]1 | > 100 | –
CCOc1ccccc1NC(=O)C(=O)Cc1nc2ccccc2s1 | > 100 | –
C=CCn1c2c(sc1=S)C(S)N=CN2 (stereo not given) | > 100 | –
Cc1cccc(N=C2NC(=O)C(CC(=O)Nc3cccc(C)c3C)S2)c1 (stereo not given) | > 100 | –
CN(C)CCSc1nccc(-c2cc3ccccc3s2)n1 | 52.7 | –
O=C(O)CSc1n[nH]c(Cc2ccccc2)n1 | > 100 | –
